Data as given in PMC2365101, “Anti-Inflammatory Activity of (Polyphenolic)-Sulfonates and Their Sodium Salts in Rodents” (Metal-Based Drugs, 1998).

Columns and labels:
Assay type in all cases: cell-based, mouse
[1] = test system: TNFα release from IC-21 macrophages; assay: TNFα release from IC-21 macrophages induced by LPS (L929 bioassay); settings: for TNFα release, Percent of LPS Control: 18 hours exposure to LPS, N=6
Excerpt: (§1) Few reports in the literature indicate interaction at these receptor sites other than by peptides or antibodies. […] Blocking these receptors is desirable because the entire inflammation cascade of events is triggered by the early release of TNFa and IL-1. […] Radioisotopes were obtained from New England Nuclear [Dupont, Boston, MA] and substrates and co- factors were obtained from Sigma Chemical Co. [St. Louis, MO]. […] Cell lines were obtained from American Type Culture Collection [Rockville, MD]. In Vivo Tests Anti-inflammatory screen in mice: Male CF male mice weighing 28-32g obtained from Jackson Lab. [Bar Harbor, […]] were used to screen agents at 8 or 16 mg/kg intraperitoneal [I.P.] x 2 administered 3 hr and 30 min prior to administering the irritant, according to Winter's protocol. Evaluation of the induced edema was made by injecting 2% carrageenan in 0.9% saline into the plantar region of the foot. The opposite foot injected with 0.9% isotonic saline was used as a base line. […] Salmonella abortus equi [Lot # 69F4003] […] Drugs from 2 to 16 mg/kg, I.P. were administered 2 hr prior and 2 hr post-injection of the LPS and then subsequently for every 24 hr for the length ofthe animals' lives. Deaths were recorded every 12 hr and continued for 96 hr. […] In vitro TNFa andIL-1 Measurements and Cellular Regulation IC-21 mouse macrophages were maintained in RPMI-1640 + 10% FCS + P/S. After the cells had grown to confluency, E. coli LPS at 10 Ixg/ml was added to the medium. Agents were incubated at 12.5 to 100 µM final concentration for 18 hr. The medium (100 btl) was collected for TNFCt determinations. Interleukin-1 [IL-1] release was determined using P388D1 cells which were maintained in RPMI-1640 + 10% FCS + P/S. The L929 bioassay was used to quantitate the TNF and the IL-1 levels. The L929 mouse fibroblasts were grown in DMEM + 10% FCS + P/S to confluency in 96 well plates and incubated with 100 tl ofmedium from […] or P388D cells after 18 hr. The cells were stained with 0.2% crystal violet in 20% MeOH and read at 580 nm using a Molecular Devices scanner (SOFT-max program). High Affinity Binding to Receptors on L929-106 Cells Two laCi of 125I-TNFct (human recombinant, 30 mCi/tg New England Nuclear) or 125I-IL-1 (70-120[.t Ci/lxg,New England Nuclear) was added to confluency L929 cells for 90 min or 5 hr, respectively with 25, 50 and 100 tM of the test compounds 12]. The cells were washed repeatedly with isotonic saline, pH.7.2 and aliquots counted. Prostaglandin cylcooxygenase activity Mouse J774AI macrophages maintained in Dulbecco's modified Eagle's medium + 15% FCS + P/S. Cells (5 x 106) were incubated with agents (5 to 100 ].tM final concentration) and 3H-arachidonic acid (100 Ci/mol) for 60 min at 37C in a CO2 incubator. The reaction was terminated with 2N HCI, the mixture extracted 2 X with ether, and the organic layer evaporated.

[2] = test system: IL-1 release from P388D1 macrophages; assay: IL-1 release from P388D1 macrophages (L929 bioassay); settings: 5 μM, over 18 hours, N=6
[3] = test system: IL-1 release from P388D1 macrophages; assay: as above; settings: for IL-1 release, Percent of Control: over 18 hours, N=6; for reduction of IL-1 release: 25 and 50 μM, 18 hr
Excerpt: as §1

Row | Compound | TNFα release, Percent of LPS Control ([1]; 5 μM) | TNFα release, Percent of LPS Control ([1]; 12.5 μM) | TNFα release, Percent of LPS Control ([1]; 25 μM) | TNFα release, Percent of LPS Control ([1]; 50 μM) | IL-1 release, Percent of Control [2] | IL-1 release, Percent of Control ([3]; 12.5 μM) | IL-1 release, Percent of Control ([3]; 25 μM) | IL-1 release, Percent of Control ([3]; 50 μM) | reduction of IL-1 release [3] | reduction of TNFα release ([1]; 50 μM, 18 hr)
1 | CC(=O)Oc1c2cc(S(=O)(=O)[O-])cc1Cc1cc(S(=O)(=O)[O-])cc(c1OC(C)=O)Cc1cc(S(=O)(=O)[O-])cc(c1OC(C)=O)Cc1cc(S(=O)(=O)[O-])cc(c1OC(C)=O)Cc1cc(S(=O)(=O)[O-])cc(c1OC(C)=O)Cc1cc(S(=O)(=O)[O-])cc(c1OC(C)=O)Cc1cc(S(=O)(=O)[O-])cc(c1OC(C)=O)Cc1cc(S(=O)(=O)[O-])cc(c1OC(C)=O)C2.[Na+].[Na+].[Na+].[Na+].[Na+].[Na+].[Na+].[Na+] [Compound 8] | 73 + 4% of LPS Control | 66 + 4% of LPS Control | 44 + 3% of LPS Control | 53 +4% of LPS Control | 75+ 5% of Control | 66 + 4% of Control | 0% of Control | 0% of Control | > 95% | 
2 | COc1c2cc(S(=O)(=O)[O-])cc1Cc1cc(S(=O)(=O)[O-])cc(c1OC)Cc1cc(S(=O)(=O)[O-])cc(c1OC)Cc1cc(S(=O)(=O)[O-])cc(c1OC)Cc1cc(S(=O)(=O)[O-])cc(c1OC)Cc1cc(S(=O)(=O)[O-])cc(c1OC)C2.[Na+].[Na+].[Na+].[Na+].[Na+].[Na+] [Compound 6] | 118 + 7% of LPS Control | 102 + 5% of LPS Control | 86 + 6% of LPS Control | 62 + 4% of LPS Control | 13 + 3% of Control | 6 + 2% of Control | 0% of Control | 0% of Control | > 95% | 38%
